Measured values as given in patent publication US20110230477A1, “COMPOUNDS, PHARMACEUTICAL COMPOSITION AND METHODS FOR USE IN TREATING METABOLIC DISORDERS” (Euroscreen S.A., priority 2008, published 2011).

Target: T1, human GPR43 receptor (hGPR43) (Homo sapiens, UniProt O15552)
T1 construct: expressed in transfected cells
T1 sequence (O15552 1-330): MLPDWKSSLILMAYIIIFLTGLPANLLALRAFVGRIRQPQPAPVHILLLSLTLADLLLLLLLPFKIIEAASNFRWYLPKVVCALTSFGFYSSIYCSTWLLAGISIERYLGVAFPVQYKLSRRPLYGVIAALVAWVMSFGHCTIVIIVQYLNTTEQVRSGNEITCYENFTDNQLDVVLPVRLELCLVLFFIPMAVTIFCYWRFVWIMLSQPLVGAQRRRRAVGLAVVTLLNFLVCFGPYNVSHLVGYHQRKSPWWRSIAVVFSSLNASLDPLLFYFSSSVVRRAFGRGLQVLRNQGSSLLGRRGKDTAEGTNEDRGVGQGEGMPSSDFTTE
Assay: GTPγS binding assay (SPA method)
Assay type: biochemical
Conditions: membranes expressing hGPR43; assay performed in the presence of SCFA; read-out: EC50 (nM) in GTPγ35S assay
Text: The following assay can be used for determination of GPR43 activation. When a GPCR is in its active state, either as a result of ligand binding or constitutive activation, the receptor couples to a G protein and stimulates the release of GDP and subsequent binding of GTP to the G protein. The alpha subunit of the G protein-receptor complex acts as a GTPase and slowly hydrolyses the GTP to GDP, at which point the receptor normally is deactivated. Activated receptors continue to exchange GDP for GTP. […] The assay uses the ability of GPCR to stimulate [^35S]GTPγS binding to membranes expressing the relevant receptors. The assay can, therefore, be used in the direct identification method to screen candidate compounds to endogenous or not endogenous GPCR.
Membrane extracts were prepared from cells expressing the human GPR43 receptor (hGPR43) as follows: the medium was aspirated and the cells were scraped from the plates in Ca^++ and Mg^++-free Phosphate-buffered saline (PBS). The cells were then centrifuged for 3 min at 1500 g and the pellets were resuspended in buffer A (15 mM Tris-HCl pH 7.5, 2 mM MgCl2, 0.3 mM EDTA, 1 mM EGTA) and homogenized in a glass homogenizer. […] Protein content was assayed by the Folin method.
The assay was performed in the presence of SCFA, and was used to determine the activity of the compounds of the invention.
The [^35S]GTPγS assay was incubated in 20 mM HEPES pH7.4, 100 mM NaCl, 10 μg/ml saponin, 30 mM of MgCl2, 10 μM of GDP, 5 μg membrane-expressing hGPR43, 250 μg of wheatgerm agglutinin beads (Amersham, ref: RPNQ001), a range concentration of compounds (from 30 μM to 1 nM) in a final volume of 100 μl for 30 min at room temperature. The SCFA propionate was used at 1 mM final concentration as positive control. The plates were then centrifuged for 10 minutes at 2000 rpm, incubated for 2 hours at room temperature and counted for 1 min in a scintillation counter (TopCount, PerkinElmer).

SMILES | EC50 [nM]
O=C(O)C[C@@H](Cc1ccccc1)C(=O)N(c1nc(-c2cc(C(F)(F)F)ccc2Cl)cs1)C1CC1 [Compound 191, (R)-3-benzyl-4-((4-(2-chloro-5-(trifluoromethyl)phenyl)thiazol-2-yl)(cyclopropyl)amino)-4-oxobutanoic acid] | 37
CN(C(=O)[C@@H](CC(=O)O)CC1CCCC1)c1nc(-c2ccccc2-c2ccc(N3CCOCC3)nc2)cs1 [Compound 171, (R)-3-(cyclopentylmethyl)-4-(methyl(4-(2-(6-morpholinopyridin-3-yl)phenyl)thiazol-2-yl)amino)-4-oxobutanoic acid] | 50
COc1ccc(-c2ccccc2-c2csc(N(C)C(=O)[C@@H](CC(=O)O)Cc3ccccc3)n2)cn1 [Compound 116, (R)-3-benzyl-4-((4-(2-(6-methoxypyridin-3-yl)phenyl)thiazol-2-yl)(methyl)amino)-4-oxobutanoic acid] | 175
CN(C(=O)[C@@H](CC(=O)O)Cc1ccccc1)c1nc(-c2ccccc2C#N)cs1 [Compound 91, (R)-3-benzyl-4-((4-(2-cyanophenyl)thiazol-2-yl)(methyl)amino)-4-oxobutanoic acid] | 354
COc1ncc(-c2ccccc2-c2csc(N(C(=O)[C@@H](CC(=O)O)CC3CCCC3)C3CC3)n2)cc1F [Compound 220, (R)-3-(cyclopentylmethyl)-4-(cyclopropyl(4-(2-(5-fluoro-6-methoxypyridin-3-yl)phenyl)thiazol-2-yl)amino)-4-oxobutanoic acid] | 27
CN(C)c1ccc(-c2ccccc2-c2csc(N(C)C(=O)[C@@H](CC(=O)O)Cc3ccccc3)n2)cn1 [Compound 115, (R)-3-benzyl-4-((4-(2-(6-(dimethylamino)pyridin-3-yl)phenyl)thiazol-2-yl)(methyl)amino)-4-oxobutanoic acid] | 72
CN(C(=O)[C@@H](CC(=O)O)Cc1ccccc1)c1nc(-c2ccccc2Cl)c(Cl)s1 [Compound 21, (R)-3-benzyl-4-((5-chloro-4-(2-chlorophenyl)thiazol-2-yl)(methyl)amino)-4-oxobutanoic acid] | 260
CN(C(=O)[C@@H](CC(=O)O)Cc1ccccc1)c1nc(-c2ccccc2-c2ccc(Cl)nc2)cs1 [Compound 108, (R)-3-benzyl-4-((4-(2-(6-chloropyridin-3-yl)phenyl)thiazol-2-yl)(methyl)amino)-4-oxobutanoic acid] | 305
CN(C(=O)[C@@H](CC(=O)O)Cc1ccccc1)c1nc(-c2ccccc2-c2ccc(N3CCOCC3)cc2)cs1 [Compound 132, (R)-4-(2′-(2-(2-benzyl-3-carboxy-N-methylpropanamido)thiazol-4-yl)-[1,1′-biphenyl]-4-yl)morpholin-4-ium 2,2,2-trifluoroacetate] | 276
CN(C(=O)[C@@H](CC(=O)O)Cc1ccccc1)c1nc(-c2ccccc2-c2ccccc2)cs1 [Compound 111, (R)-4-((4-([1,1′-biphenyl]-2-yl)thiazol-2-yl)(methyl)amino)-3-benzyl-4-oxobutanoic acid] | 393
CN(C(=O)[C@@H](CC(=O)O)Cc1ccccc1)c1nc(-c2ccccc2-c2ccc(N3CCOCC3)nc2)cs1 [Compound 133, (R)-3-benzyl-4-(methyl(4-(2-(6-morpholinopyridin-3-yl)phenyl)thiazol-2-yl)amino)-4-oxobutanoic acid] | 241
O=C(O)C[C@@H](CC1CCCCC1)C(=O)Nc1nc(-c2ccccc2Cl)cs1 [Compound 18, (R)-4-(4-(2-chlorophenyl)thiazol-2-ylamino)-3-(cyclohexylmethyl)-4-oxobutanoic acid] | 104
O=C(O)C[C@@H](Cc1ccccc1)C(=O)Nc1nc(-c2cccc(C(F)(F)F)c2)cs1 [Compound 13, (R)-3-benzyl-4-oxo-4-(4-(3-(trifluoromethyl)phenyl)thiazol-2-ylamino)butanoic acid] | 875
O=C(O)C[C@@H](Cc1ccccc1)C(=O)Nc1nc(-c2ccccc2)ns1 [Compound 11, (R)-3-benzyl-4-oxo-4-(3-phenyl-1,2,4-thiadiazol-5-ylamino)butanoic acid] | 680
COCCN(C(=O)[C@@H](CC(=O)O)Cc1ccccc1)c1nc(-c2ccccc2Cl)cs1 [Compound 199, (R)-3-benzyl-4-((4-(2-chlorophenyl)thiazol-2-yl)(2-methoxyethyl)amino)-4-oxobutanoic acid] | 1380
O=C(O)C[C@@H](Cc1ccccc1)C(=O)Nc1nc(-c2ccc(Cl)c(Cl)c2)cs1 [Compound 5, (R)-3-benzyl-4-(4-(3,4-dichlorophenyl)thiazol-2-ylamino)-4-oxobutanoic acid] | 292
CCN(C(=O)[C@@H](CC(=O)O)Cc1ccccc1)c1nc(-c2ccccc2Cl)cs1 [Compound 96, (R)-3-benzyl-4-((4-(2-chlorophenyl)thiazol-2-yl)(ethyl)amino)-4-oxobutanoic acid] | 249
O=C(O)C[C@@H](CC1CCCC1)C(=O)N(c1nc(-c2cc(Cl)ccc2Cl)cs1)C1CC1 [Compound 166, (R)-3-(cyclopentylmethyl)-4-(cyclopropyl(4-(2,5-dichlorophenyl)thiazol-2-yl)amino)-4-oxobutanoic acid] | 13
O=C(O)C[C@@H](Cc1ccccc1)C(=O)Nc1ccc(-c2ccccc2Cl)c[n+]1[O-] [Compound 196, (R)-2-(2-benzyl-3-carboxypropanamido)-5-(2-chlorophenyl)pyridine 1-oxide] | 1830
Cc1cc(CC(CC(=O)O)C(=O)N(C)c2nc(-c3ccccc3Cl)cs2)no1 (centres unmarked) [Compound 210, 4-((4-(2-chlorophenyl)thiazol-2-yl)(methyl)amino)-3-((5-methylisoxazol-3-yl)methyl)-4-oxobutanoic acid] | 2680
COc1ncc(-c2ccc(Cl)cc2-c2csc(N(C(=O)[C@@H](CC(=O)O)CC3CCCC3)C3CC3)n2)cc1Cl [Compound 223, (R)-4-((4-(5-chloro-2-(5-chloro-6-methoxypyridin-3-yl)phenyl)thiazol-2-yl)(cyclopropyl)amino)-3-(cyclopentylmethyl)-4-oxobutanoic acid] | 87
C[C@@H](c1ccccc1)[C@H](CC(=O)O)C(=O)N(C)c1nc(-c2ccccc2Cl)cs1 [Compound 106, (3S ,4R)-3-((4-(2-chlorophenyl)thiazol-2-yl)(methyl)carbamoyl)-4-phenylpentanoic acid] | 216
COC(=O)CCN(C(=O)[C@@H](CC(=O)O)Cc1ccccc1)c1nc(-c2ccccc2Cl)cs1 [Compound 126, (R)-3-benzyl-4-((4-(2-chlorophenyl)thiazol-2-yl)(3-methoxy-3-oxopropyl)amino)-4-oxobutanoic acid] | 183
CN(C(=O)[C@@H](CC(=O)O)Cc1ccccc1)c1nc(-c2ccccc2C2CC2)cs1 [Compound 144, (R)-3-benzyl-4-((4-(2-cyclopropylphenyl)thiazol-2-yl)(methyl)amino)-4-oxobutanoic acid] | 897
CN(C(=O)[C@@H](CC(=O)O)Cc1ccccc1)c1nc(-c2ccccc2-c2ccc(C#N)cc2)cs1 [Compound 206, (R)-3-benzyl-4-((4-(4′-cyano-[1,1′-biphenyl]-2-yl)thiazol-2-yl)(methyl)amino)-4-oxobutanoic acid] | 2320
O=C(O)C[C@H](C(=O)Nc1nc(-c2ccccc2Cl)cs1)c1ccccc1 [Compound 9, (S)-4-(4-(2-chlorophenyl)thiazol-2-ylamino)-4-oxo-3-phenylbutanoic acid] | 60
O=C(O)C[C@@H](Cc1ccccc1)C(=O)N(CCOCc1ccccc1)c1nc(-c2ccccc2Cl)cs1 [Compound 201, (R)-3-benzyl-4-((2-(benzyloxy)ethyl)(4-(2-chlorophenyl)thiazol-2-yl)amino)-4-oxobutanoic acid] | 1360
Cc1sc(NC(=O)[C@@H](CC(=O)O)Cc2ccccc2)c(C(N)=O)c1-c1ccc(Cl)cc1Cl [Compound 207, (3R)-3-benzyl-4-((3-carbamoyl-4-(2,4-dichlorophenyl)-5-methylthiophen-2-yl)amino)-4-oxobutanoic acid] | 2910
O=C(O)C[C@@H](CC1CCCC1)C(=O)N(CCO)c1nc(-c2cc(Cl)ccc2Cl)cs1 [Compound 172, (R)-3-(cyclopentylmethyl)-4-((4-(2,5-dichlorophenyl)thiazol-2-yl)(2-hydroxyethyl)amino)-4-oxobutanoic acid] | 355
